Consider 1 substance from patent publication US20100016242A1, “MYOSIN LIGHT CHAIN KINASE INHIBITORS AND METHODS OF USE” (THE UNIVERSITY OF CHICAGO, priority 2004, published 2010).

Data set [1] in a line: stability in Caco-2 intestinal epithelial cell extracts (LC-MS). Format: in vitro ADME. Particulars: Caco-2 cell extracts. How it is done:
Peptides administered in vivo are susceptible to protease cleavage, particularly those administered to the intestine. PIK, D-PIK, D-PIK(reversed) and D-PIK(int.) were each incubated with rat intestinal fluid and also with Caco-2 intestinal epithelial cell extracts, which contain a mixture brush border and cytosolic proteases. Luminal intestinal secretions were obtained by flushing isolated rat intestines (duodenum to ileum) with 10 ml of 20 mM of N-2-Hydroxyethylpiperazine-N′-2-ethanesulfonic acid (HEPES) buffer, pH 7.4. Discharged contents were centrifuged to remove solids and the supernatant filtered through a 0.20 μm filter prior to determining total protein content. Confluent Caco-2 cells were rinsed with PBS, lifted by brief trypsin treatment into a small volume of Dulbecco's modified Eagles's medium (DMEM) and washed twice with phosphate buffered saline (PBS). […] Protein concentrations of isolated intestinal fluid and lysed Caco-2 cell extracts were determined using the Bio-Rad Protein Assay. […] Samples were centrifuged and supernatants analyzed by LC-MS analysis to determine the cleavage pattern of PIK.
(§1) Residual peptide content was assessed by liquid chromatography-mass spectrometry (Tiller et al., Anal Bioanal Chem 2003; 377:788-802) and positive ion electrospray ionization.

Data set [2] can be described thus: stability in rat intestinal fluid (LC-MS). It is filed as in vitro ADME. How it is done:
Peptides administered in vivo are susceptible to protease cleavage, particularly those administered to the intestine. PIK, D-PIK, D-PIK(reversed) and D-PIK(int.) were each incubated with rat intestinal fluid and also with Caco-2 intestinal epithelial cell extracts, which contain a mixture brush border and cytosolic proteases. Luminal intestinal secretions were obtained by flushing isolated rat intestines (duodenum to ileum) with 10 ml of 20 mM of N-2-Hydroxyethylpiperazine-N′-2-ethanesulfonic acid (HEPES) buffer, pH 7.4. Discharged contents were centrifuged to remove solids and the supernatant filtered through a 0.20 μm filter prior to determining total protein content. Confluent Caco-2 cells were rinsed with PBS, lifted by brief trypsin treatment into a small volume of Dulbecco's modified Eagles's medium (DMEM) and washed twice with phosphate buffered saline (PBS). The final cell pellet was re-suspended in a small volume of lysis buffer (50 mM Tris-HCL, 2 mM EDTA, 20% glycerol at pH 7.4) and sonicated on ice. Protein concentrations of isolated intestinal fluid and lysed Caco-2 cell extracts were determined using the Bio-Rad Protein Assay. Peptide inhibitors of MLCK (1 mg/ml) in PBS were mixed with 0.1 mg protein of intestinal secretions or Caco-2 cell lysate on ice and incubated for at 4° C. and 37° C., respectively. At selected times, 100 μl aliquots were withdrawn and mixed with an equal volume of 0.5% TFA (in 50/50 water/acetonitrile) to terminate enzymatic reactions. Samples were centrifuged and supernatants analyzed by LC-MS analysis to determine the cleavage pattern of PIK.
as §1
The peptides listed in Table 2 (0.1 mg) were incubated with rat intestinal fluid (0.2 mg) at 37° C. for 0.5 min to 6 hours.

Usually half-life stands for the time needed for the level to fall by half in the phase considered. Lower therefore signals rapid decline. Regarding “Ac-RKKYKYRRK-NH2 [PIK, Arg-Lys-Lys-Tyr-Lys-Tyr-Arg-Arg-Lys]”, the cleavage pattern result in data set [1] is recorded as “cleaved PIK across the central palindromic sequence”. The same substance registered a half-life in data set [2] (0.1 mg peptide, rat intestinal fluid (0.2 mg), 37° C.) of 12 s. Further, the initial cleavage pattern entry in data set [2] (rat intestinal fluid) is “peptide bonds at the C-terminal sides of K and R residues of PIK were initially cleaved”. The “hydrolysis on extended incubation” value in data set [2] (rat intestinal fluid, extended incubations) is reported as “total hydrolysis”.
